These results are taken from patent US20160368898A1, “2-PYRIDYLOXY-4-METHYL OREXIN RECEPTOR ANTAGONISTS” (MERCK SHARP & DOHME CORP., priority 2013, published 2016).

Assay [1] addresses T1, human orexin-2 receptor (hOX2R) (Homo sapiens, UniProt O43614).
T1 construct: expressed in transfected cells; host or cells: CHO cells (grown under G418)
T1 sequence (O43614 1-444): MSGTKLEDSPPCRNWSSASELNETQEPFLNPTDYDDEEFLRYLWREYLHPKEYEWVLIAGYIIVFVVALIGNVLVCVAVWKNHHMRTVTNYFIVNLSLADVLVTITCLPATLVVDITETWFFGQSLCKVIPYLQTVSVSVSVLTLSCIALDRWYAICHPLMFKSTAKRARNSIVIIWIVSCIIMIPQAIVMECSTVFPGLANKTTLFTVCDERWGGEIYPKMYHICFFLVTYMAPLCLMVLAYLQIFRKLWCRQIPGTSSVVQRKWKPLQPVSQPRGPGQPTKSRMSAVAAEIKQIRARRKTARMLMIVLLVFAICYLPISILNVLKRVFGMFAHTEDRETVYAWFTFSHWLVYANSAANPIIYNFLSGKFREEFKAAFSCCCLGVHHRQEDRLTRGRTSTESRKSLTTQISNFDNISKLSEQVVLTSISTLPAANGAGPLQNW
Briefly: FLIPR Ca2+ Flux Assay, CHO cells expressing the human orexin-2 receptor. Type of assay: cell-based. The note with it: agonist 70 pM Ala-6,12 human orexin-A. As to the method:
The utility of the compounds in accordance with the present invention as orexin receptor OX1R and/or OX2R antagonists may be readily determined without undue experimentation by methodology well known in the art, including the “FLIPR Ca^2+ Flux Assay” (Okumura et al., Biochem. Biophys. Res. Comm. 280:976-981, 2001). In a typical experiment the OX1 and OX2 receptor antagonistic activity of the compounds of the present invention was determined in accordance with the following experimental method. For intracellular calcium measurements, Chinese hamster ovary (CHO) cells expressing the rat orexin-1 receptor or the human orexin-2 receptor, are grown in Iscove's modified DMEM containing 2 mM L-glutamine, […], 1% hypoxanthine-thymidine supplement, 100 U/ml penicillin, 100 μg/ml streptomycin and 10% heat-inactivated fetal calf serum (FCS). The cells are seeded at 20,000 cells/well into Becton-Dickinson black 384-well clear bottom sterile plates coated with poly-D-lysine. All reagents were from GIBCO-Invitrogen Corp. The seeded plates are incubated overnight at 37° C. and 5% CO2. Ala-6,12 human orexin-A as the agonist is prepared as a 1 mM stock solution in 1% bovine serum albumin (BSA) and diluted in assay buffer (HBSS containing 20 mM HEPES, 0.1% BSA and 2.5 mM probenecid, pH7.4) for use in the assay at a final concentration of 70 pM. Test compounds are prepared as 10 mM stock solution in DMSO, then diluted in 384-well plates, first in DMSO, then assay buffer. On the day of the assay, cells are washed 3 times with 100 μl assay buffer and then incubated for 60 min (37° C., 5% CO2) in 60 μl assay buffer containing 1 μM Fluo-4AM ester, 0.02% pluronic acid, and 1% BSA. The dye loading solution is then aspirated and cells are washed 3 times with 100 μl assay buffer. 30 μl of that same buffer is left in each well. Within the Fluorescent Imaging Plate Reader (FLIPR, Molecular Devices), test compounds are added to the plate in a volume of 25 μl, incubated for 5 min and finally 25 μl of agonist is added. Fluorescence is measured for each well at 1 second intervals for 5 minutes and the height of each fluorescence peak is compared to the height of the fluorescence peak induced by 70 pM Ala-6,12 orexin-A with buffer in place of antagonist. For each antagonist, IC50 value (the concentration of compound needed to inhibit 50% of the agonist response) is determined. Alternatively, compound potency can be assessed by a radioligand binding assay (described in Bergman et. al. Bioorg. Med. Chem. Lett. 2008, 18, 1425-1430) in which the inhibition constant (Ki) is determined in membranes prepared from CHO cells expressing either the OX1 or OX2 receptor. The intrinsic orexin receptor antagonist activity of a compound which may be used in the present invention may be determined by these assays.
(Calcium flux is commonly read through the fluorescence of an indicator in the cells.)

Assay [2] addresses T2, hOX1R (Homo sapiens, UniProt O43613).
T2 construct: expressed in transfected cells; host or cells: CHO cells (grown under G418)
T2 sequence (O43613 1-425): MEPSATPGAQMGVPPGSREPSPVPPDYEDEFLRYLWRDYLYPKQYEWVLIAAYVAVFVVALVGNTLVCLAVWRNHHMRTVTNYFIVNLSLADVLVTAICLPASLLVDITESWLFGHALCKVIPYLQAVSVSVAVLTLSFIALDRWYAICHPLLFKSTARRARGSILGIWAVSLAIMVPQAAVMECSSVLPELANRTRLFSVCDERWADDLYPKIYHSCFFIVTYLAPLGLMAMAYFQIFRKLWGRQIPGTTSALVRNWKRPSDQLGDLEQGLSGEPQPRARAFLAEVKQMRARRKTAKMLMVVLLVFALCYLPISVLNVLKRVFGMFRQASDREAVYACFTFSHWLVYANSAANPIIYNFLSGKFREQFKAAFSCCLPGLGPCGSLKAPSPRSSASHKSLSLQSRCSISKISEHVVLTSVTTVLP
Nature of the assay: FLIPR Ca2+ Flux Assay, CHO cells expressing the orexin-1 receptor. It counts as cell-based. The note with it: agonist 70 pM Ala-6,12 human orexin-A.

SMILES strings stand for the structures.

The IC50 is the point on the concentration scale where inhibition reaches its midpoint. Regarding `Cc1ccnc(O[C@@H]2CC[C@@H](C)N(C(=O)c3ccsc3-c3ncccn3)C2)c1` [Example 21, 2-[3-({(2R,5R)-2-methyl-5-[(4-methylpyridin-2-yl)oxy]piperidin-1-yl}carbonyl)thiophen-2-yl]pyrimidine], the half-maximal inhibitory concentration (IC50) was 69 nM in assay [1] and 2110 nM in assay [2].
For the molecule `Cc1ccnc(O[C@@H]2CC[C@@H](C)N(C(=O)c3sccc3-c3ncccn3)C2)c1` [Example 22, 2-[2-({(2R,5R)-2-methyl-5-[(4-methylpyridin-2-yl)oxy]piperidin-1-yl}carbonyl)thiophen-3-yl]pyrimidine], the IC50 came to 17 nM in assay [1] and 791 nM in assay [2].
